# Literature values as cited in patent US6809181B2, “Human beta-defensin-3 (HBD-3), a highly cationic beta-defensin antimicrobial peptide” (University of Iowa Research Foundation, priority 2000, dated 2004).
# Like-named read-outs stand apart in the source and are kept apart here.
# Experiments:
# Nocardia asteroides = conditions: n=78, r91, cited from earlier work
# [1] = system: Haemophilus influenzae (penicillin resistant); conditions: n=20, r66, cited from earlier work
# [2] = system: Staphylococcus aureus (methicillin resistant); conditions: cited from earlier work
# [3] = system: Staphylococcus aureus (penicillin resistant); conditions: n=35, r98, cited from earlier work
# [4] = system: Branhamella (Moraxella) catarrhalis; conditions: n=20, unit assumed, cited from earlier work
# Campylobacter pylori = conditions: n=56, r43, cited from earlier work
# Haemophilus influenzae = conditions: cited from earlier work; for MIC50 / MIC90: unit assumed
# Staphylococcus aureus = conditions: unit assumed, cited from earlier work
# Listeria monocytogenes = conditions: cited from earlier work; for MIC50 / MIC90: unit assumed
# Ureaplasma urealyticum = conditions: unit assumed, cited from earlier work
# Enterococcus spp. = conditions: n=35, r52, cited from earlier work
# [5] = system: Haemophilus influenzae (β-lactamase producer); conditions: cited from earlier work
# Haemophilus ducreyi = conditions: n=122; r53; unit assumed; cited from earlier work
# Bacteroides fragilis = conditions: n=97, r7, cited from earlier work
smiles,measurement,setting,value
"CC[C@H]1OC(=O)[C@H](C)[C@@H](O[C@H]2C[C@@](C)(OC)[C@@H](O)[C@H](C)O2)[C@H](C)[C@@H](O[C@@H]2O[C@H](C)C[C@H](N(C)C)[C@H]2O)[C@](C)(O)C[C@@H](C)C(=O)[C@H](C)[C@@H](O)[C@]1(C)O [ERYTHROMYCIN, erythromycin]",Range,Nocardia asteroides,0.25-8
same,MIC50,Nocardia asteroides; unit assumed,8 µg/mL
same,MIC90,Nocardia asteroides; unit assumed,8 µg/mL
same,Range,[1],8-16
same,MIC50,[1]; unit assumed,8 µg/mL
same,MIC90,[1]; unit assumed,16 µg/mL
same,Range,"[2]; n=15, r108",64
same,MIC50,"[2]; n=15, r108, unit assumed",64 µg/mL
same,Range,"[2]; n=20, r110",64
same,MIC50,"[2]; n=20, r110, unit assumed",64 µg/mL
same,Range,"[2]; n=30, r112",0.06-32
same,MIC50,"[2]; n=30, r112, unit assumed",32 µg/mL
same,MIC90,"[2]; n=30, r112, unit assumed",32 µg/mL
same,Range,[3],0.25-32
same,MIC50,[3]; unit assumed,0.25 µg/mL
same,MIC90,[3]; unit assumed,32 µg/mL
same,MIC50,[4]; r13,0.25 µg/mL
same,MIC50,[4]; r15,0.25 µg/mL
same,MIC90,[4]; r15,1 µg/mL
same,Range,Campylobacter pylori,0.25-16
same,MIC50,Campylobacter pylori; unit assumed,0.5 µg/mL
same,MIC90,Campylobacter pylori; unit assumed,1 µg/mL
same,Range,"Haemophilus influenzae; n=97, r55",0.25-16
same,MIC50,"Haemophilus influenzae; n=97, r55",1 µg/mL
same,MIC90,"Haemophilus influenzae; n=97, r55",4 µg/mL
same,Range,"Haemophilus influenzae; n=145, r54",0.5-8
same,MIC50,"Haemophilus influenzae; n=145, r54",2 µg/mL
same,MIC90,"Haemophilus influenzae; n=145, r54",2 µg/mL
same,MIC90,"Staphylococcus aureus; n=44, r92",0.5 µg/mL
same,MIC50,"Staphylococcus aureus; n=100, r93",0.5 µg/mL
same,MIC90,"Staphylococcus aureus; n=100, r93",4 µg/mL
same,Range,"Listeria monocytogenes; n=13, r74",0.5-1
same,MIC50,"Listeria monocytogenes; n=13, r74",0.5 µg/mL
same,MIC90,"Listeria monocytogenes; n=13, r74",0.5 µg/mL
same,MIC50,"Listeria monocytogenes; n=16, r75",0.25 µg/mL
same,MIC90,"Listeria monocytogenes; n=16, r75",1 µg/mL
same,Range,"Listeria monocytogenes; n=65, r76",0.06-32
same,MIC90,"Listeria monocytogenes; n=65, r76",32 µg/mL
same,MIC50,"Ureaplasma urealyticum; n=19, r138",16 µg/mL
same,MIC90,"Ureaplasma urealyticum; n=19, r138",32 µg/mL
same,MIC50,"Ureaplasma urealyticum; n=28, r137",2 µg/mL
same,Range,Enterococcus spp.,0.06-32
same,MIC50,Enterococcus spp.; unit assumed,2 µg/mL
same,MIC90,Enterococcus spp.; unit assumed,32 µg/mL
same,Range,"[5]; n=17, r62",0.25-4
same,Range,"[5]; n=46, r60",0.06-8
same,MIC50,Haemophilus ducreyi,0.004 µg/mL
same,MIC90,Haemophilus ducreyi,0.06 µg/mL
same,Range,Bacteroides fragilis,0.25-16
same,MIC50,Bacteroides fragilis; unit assumed,1 µg/mL
same,MIC90,Bacteroides fragilis; unit assumed,8 µg/mL
